One series deals with PD-1/PD-L1 binding. Particulars: read-out: PD-1/PD-L1 inhibitory IC50; cited from earlier work. The text has this: (§1) With continuous progress of modern separation and analysis techniques, high-throughput screening methods for enzyme inhibitory peptides have emerged as powerful tools in the discovery of bioactive peptides. Recently, the methodologies based on the phage display library, bacteria display library, and peptide fragment of proteins have been applied in screening for PD-L1 inhibitors.

The nature of another series: Water-solubility. Particulars: qualitative statement. The series is classed as physicochemical.
The next series concerns CT26 tumor. Particulars: 2 mg/kg, CT26 tumor-bearing mice; cited from earlier work.
Description: as §1

A further series addresses Tag1-PD-L1 protein (UniProt Q9NZQ7 19-238). Nature of the series: AlphaScreen or HTRF; Cisbio PD-1/PD-L1 HTRF binding assay kit; competition: analyte with Tag1-PD-L1 and Tag2-PD-1 for 15 min at room temperature, then anti-Tag1-Eu3+ and anti-Tag2-XL665 for 2 h at room temperature. Particulars: both partners purified.
Series [1] has as its target T1, recombinant human PD-L1 (residue 18–239, extracellular domain) (human, UniProt Q9NZQ7 18-239).
T1 construct: Programmed death ligand 1 (PD-L1, B7-H1, CD274), human, residues 18-239, extracellular domain; The limits 18-239 are told for the SPR experiment; No tag is stated; also called programmed death ligand 1; source: bought: Abcam (recombinant, 25 kDa)
Nature of the series: SPR; Biacore T200, 25 °C; PD-L1 amine-coupled on a CM5 chip to about 5600 RU; peptides injected in PBS-P (1% DMSO) at 30 µL/min, 60 s contact, 60 s dissociation. Particulars: both partners purified.

Where no end group is shown, it is not given here. A value given as a limit tells only on which side of the number the result lay.

In the case of “CKWYRPSEC [cyclic peptide C8, not the ascidian peptide C8]”, the IC50 on PD-1/PD-L1 binding was less than 10 µM.

As to LDVVIHTVTYGDR [C5], in “Water-solubility”, the water-solubility entry is “poor”.

For the molecule NYSKPTDRQYHF [^DPPA-1], in the series with CT26 tumor, the “prolongation of survival time” value was approximately 50% and the tumor growth entry is recorded as “inhibited the tumor growth”.

B1: C5 (peptide)
peptide: LDVVIHTVTYGDR
notes: from the Ciona intestinalis trypsin hydrolysate; written as one molecule; The parent protein is not known; also called peptide C5; source: trypsin hydrolysate of Ciona intestinalis (AUF); synthetic peptide, GuoPing Pharmaceutical (HTRF, SPR)
For B1, the IC50 with Tag1-PD-L1 protein came out at 33.9 µM. Further, the Kd in series [1] was determined as 22.9 µM.

B2: S2 (peptide)
peptide: VLRDNIQGITKPAIR
notes: from the Styela clava trypsin hydrolysate; candidate protein: Histone H4 (Transparent ascidian); the text says that it exactly matches Histone H4 of Ciona savignyi; written as one molecule; also called peptide S2; source: trypsin hydrolysate of Styela clava (AUF); synthetic peptide, GuoPing Pharmaceutical (HTRF, SPR)
B2: the IC50 with Tag1-PD-L1 protein came to 113 µM. Further, in series [1], the Kd turned out to be 29.1 µM.

Source of the values: publication PMC12028738 (Marine Drugs, 2025).
